From patent US20250147039A1, “Compounds for complexation of rare earth elements and/or s-, p-, d- block metals, their coordination compounds, peptide conjugates, method of their preparation and use thereof” (USTAV ORGANICKE CHEMIE A BIOCHEMIE AV CR V.V.I., priority 2021, published 2025)

Columns and labels:
[1] = Formation of 1,5-cz-[M(Lig)] from Lig and M^III ions (metal dependent click-zip) (Charts 4, 5); assay type: physicochemical; conditions: MOPS/NaOH buffer pH 7.0, TD728, TD827 in 50% i-PrOH; for conversion to 1,5-cz-[M(Lig)], Y^III: TD714 sum of two diastereoisomers
[2] = Formation of 1,5-cz-[Ln(Lig)] from Lig and Ln^III ions (metal dependent click-zip), MOPS/NaOH buffer pH 7.0, analytical HPLC (Charts 1, 2)
[3] = after 1 week at 80° C., 50% i-PrOH in aq. MOPS/NaOH Buffer pH 7.0
[4] = after 1 hour at 80° C., 50% i-PrOH in aq. MOPS/NaOH Buffer pH 7.0
[5] = after 1 week at 80° C., MOPS/NaOH buffer pH 7.0
[6] = after 1 hour at 80° C., MOPS/NaOH buffer pH 7.0

In the case of `C#Cc1cccc(CN2CCN(CC(=O)O)CCN(Cc3cc(C#C[Si](C(C)C)(C(C)C)C(C)C)cc(CN=[N+]=[N-])n3)CCN(CC(=O)O)CC2)n1` [TD827], the “conversion to 1,5-cz-[M(Lig)], Sc^III” value ([1]; 1 week at 80° C.) is reported as 55%, the “conversion to 1,5-cz-[M(Lig)], Y^III” value ([1]; 1 week at 80° C.) is reported as 96% and the “conversion to 1,5-cz-[M(Lig)], Sc^III” value ([1]; 1 hour at 80° C.) is reported as 2%. For the same compound, the “conversion to 1,5-cz-[M(Lig)], Y^III” value ([1]; 1 hour at 80° C.) was 42%, the “conversion to 1,5-cz-[Ln(Lig)], Ce^III” value [2, 3] was 22% and the “conversion to 1,5-cz-[Ln(Lig)], Ce^III” value [2, 4] was 2%. The “conversion to 1,5-cz-[Ln(Lig)], Dy^III” value [2, 3] was 96%, the “conversion to 1,5-cz-[Ln(Lig)], Dy^III” value [2, 4] was 30% and the “conversion to 1,5-cz-[Ln(Lig)], Er^III” value [2, 3] was 96%. For the same compound, the “conversion to 1,5-cz-[Ln(Lig)], Er^III” value [2, 4] was 56%, the “conversion to 1,5-cz-[Ln(Lig)], Eu^III” value [2, 3] was 92% and the “conversion to 1,5-cz-[Ln(Lig)], Eu^III” value [2, 4] was 9%. The “conversion to 1,5-cz-[Ln(Lig)], Gd^III” value [2, 3] was 93%, the “conversion to 1,5-cz-[Ln(Lig)], Gd^III” value [2, 4] was 11% and the “conversion to 1,5-cz-[Ln(Lig)], Ho^III” value [2, 3] was 96%. For the same compound, the “conversion to 1,5-cz-[Ln(Lig)], Ho^III” value [2, 4] was 43%, the “conversion to 1,5-cz-[Ln(Lig)], La^III” value [2, 3] was 46% and the “conversion to 1,5-cz-[Ln(Lig)], La^III” value [2, 4] was 1%. For the same compound, the “conversion to 1,5-cz-[Ln(Lig)], Lu^III” value [2, 3] was 97%, the “conversion to 1,5-cz-[Ln(Lig)], Lu^III” value [2, 4] was 77% and the “conversion to 1,5-cz-[Ln(Lig)], Nd^III” value [2, 3] was 84%. For the same compound, the “conversion to 1,5-cz-[Ln(Lig)], Nd^III” value [2, 4] was 3%, the “conversion to 1,5-cz-[Ln(Lig)], Pr^III” value [2, 3] was 79% and the “conversion to 1,5-cz-[Ln(Lig)], Pr^III” value [2, 4] was 2%. For the same compound, the “conversion to 1,5-cz-[Ln(Lig)], Sm^III” value [2, 3] was 91%, the “conversion to 1,5-cz-[Ln(Lig)], Sm^III” value [2, 4] was 7% and the “conversion to 1,5-cz-[Ln(Lig)], Tb^III” value [2, 3] was 95%. The “conversion to 1,5-cz-[Ln(Lig)], Tb^III” value [2, 4] was 21%, the “conversion to 1,5-cz-[Ln(Lig)], Tm^III” value [2, 3] was 97% and the “conversion to 1,5-cz-[Ln(Lig)], Tm^III” value [2, 4] was 68%. The “conversion to 1,5-cz-[Ln(Lig)], Yb^III” value [2, 3] was 97% and the “conversion to 1,5-cz-[Ln(Lig)], Yb^III” value [2, 4] was 75%.

With `[N-]=[N+]=NCc1cccc(CN2CCN(CC(=O)O)CCN(Cc3cccc(C#CC4CC4)n3)CCN(CC(=O)O)CC2)n1` [TD943] the “conversion to 1,5-cz-[M(Lig)], Sc^III” value ([1]; 1 week at 80° C.) was 5%, the “conversion to 1,5-cz-[M(Lig)], Y^III” value ([1]; 1 week at 80° C.) was 74% and the “conversion to 1,5-cz-[M(Lig)], Sc^III” value ([1]; 1 hour at 80° C.) was 0%. The “conversion to 1,5-cz-[M(Lig)], Y^III” value ([1]; 1 hour at 80° C.) was 1%, the “conversion to 1,5-cz-[Ln(Lig)], Ce^III” value [2, 5] was 4% and the “conversion to 1,5-cz-[Ln(Lig)], Ce^III” value [2, 6] was 0%. The “conversion to 1,5-cz-[Ln(Lig)], Dy^III” value [2, 5] was 65%, the “conversion to 1,5-cz-[Ln(Lig)], Dy^III” value [2, 6] was 1% and the “conversion to 1,5-cz-[Ln(Lig)], Er^III” value [2, 5] was 88%. The “conversion to 1,5-cz-[Ln(Lig)], Er^III” value [2, 6] was 2%, the “conversion to 1,5-cz-[Ln(Lig)], Eu^III” value [2, 5] was 36% and the “conversion to 1,5-cz-[Ln(Lig)], Eu^III” value [2, 6] was 0%. For the same compound, the “conversion to 1,5-cz-[Ln(Lig)], Gd^III” value [2, 5] was 40%, the “conversion to 1,5-cz-[Ln(Lig)], Gd^III” value [2, 6] was 0% and the “conversion to 1,5-cz-[Ln(Lig)], Ho^III” value [2, 5] was 77%. For the same compound, the “conversion to 1,5-cz-[Ln(Lig)], Ho^III” value [2, 6] was 2%, the “conversion to 1,5-cz-[Ln(Lig)], La^III” value [2, 5] was 5% and the “conversion to 1,5-cz-[Ln(Lig)], La^III” value [2, 6] was 0%. For the same compound, the “conversion to 1,5-cz-[Ln(Lig)], Lu^III” value [2, 5] was 97%, the “conversion to 1,5-cz-[Ln(Lig)], Lu^III” value [2, 6] was 5% and the “conversion to 1,5-cz-[Ln(Lig)], Nd^III” value [2, 5] was 16%. The “conversion to 1,5-cz-[Ln(Lig)], Nd^III” value [2, 6] was 0%, the “conversion to 1,5-cz-[Ln(Lig)], Pr^III” value [2, 5] was 10% and the “conversion to 1,5-cz-[Ln(Lig)], Pr^III” value [2, 6] was 0%. For the same compound, the “conversion to 1,5-cz-[Ln(Lig)], Sm^III” value [2, 5] was 29%, the “conversion to 1,5-cz-[Ln(Lig)], Sm^III” value [2, 6] was 0% and the “conversion to 1,5-cz-[Ln(Lig)], Tb^III” value [2, 5] was 56%. The “conversion to 1,5-cz-[Ln(Lig)], Tb^III” value [2, 6] was 1%, the “conversion to 1,5-cz-[Ln(Lig)], Tm^III” value [2, 5] was 94% and the “conversion to 1,5-cz-[Ln(Lig)], Tm^III” value [2, 6] was 3%. The “conversion to 1,5-cz-[Ln(Lig)], Yb^III” value [2, 5] was 97% and the “conversion to 1,5-cz-[Ln(Lig)], Yb^III” value [2, 6] was 3%.

In the case of `[N-]=[N+]=NCc1cccc(CN2CCN(CC(=O)O)CCN(Cc3cccc(C#Cc4ccccc4)n3)CCN(CC(=O)O)CC2)n1` [TD944], the “conversion to 1,5-cz-[M(Lig)], Sc^III” value ([1]; 1 week at 80° C.) is reported as 4%, the “conversion to 1,5-cz-[M(Lig)], Y^III” value ([1]; 1 week at 80° C.) is reported as 63% and the “conversion to 1,5-cz-[M(Lig)], Sc^III” value ([1]; 1 hour at 80° C.) is reported as 0%. The “conversion to 1,5-cz-[M(Lig)], Y^III” value ([1]; 1 hour at 80° C.) was 1%, the “conversion to 1,5-cz-[Ln(Lig)], Ce^III” value [2, 5] was 3% and the “conversion to 1,5-cz-[Ln(Lig)], Ce^III” value [2, 6] was 0%. For the same compound, the “conversion to 1,5-cz-[Ln(Lig)], Dy^III” value [2, 5] was 51%, the “conversion to 1,5-cz-[Ln(Lig)], Dy^III” value [2, 6] was 0% and the “conversion to 1,5-cz-[Ln(Lig)], Er^III” value [2, 5] was 84%. For the same compound, the “conversion to 1,5-cz-[Ln(Lig)], Er^III” value [2, 6] was 1%, the “conversion to 1,5-cz-[Ln(Lig)], Eu^III” value [2, 5] was 19% and the “conversion to 1,5-cz-[Ln(Lig)], Eu^III” value [2, 6] was 0%. For the same compound, the “conversion to 1,5-cz-[Ln(Lig)], Gd^III” value [2, 5] was 23%, the “conversion to 1,5-cz-[Ln(Lig)], Gd^III” value [2, 6] was 0% and the “conversion to 1,5-cz-[Ln(Lig)], Ho^III” value [2, 5] was 68%. The “conversion to 1,5-cz-[Ln(Lig)], Ho^III” value [2, 6] was 1%, the “conversion to 1,5-cz-[Ln(Lig)], La^III” value [2, 5] was 4% and the “conversion to 1,5-cz-[Ln(Lig)], La^III” value [2, 6] was 0%. For the same compound, the “conversion to 1,5-cz-[Ln(Lig)], Lu^III” value [2, 5] was 94%, the “conversion to 1,5-cz-[Ln(Lig)], Lu^III” value [2, 6] was 2% and the “conversion to 1,5-cz-[Ln(Lig)], Nd^III” value [2, 5] was 8%. The “conversion to 1,5-cz-[Ln(Lig)], Nd^III” value [2, 6] was 0%, the “conversion to 1,5-cz-[Ln(Lig)], Pr^III” value [2, 5] was 6% and the “conversion to 1,5-cz-[Ln(Lig)], Pr^III” value [2, 6] was 0%. The “conversion to 1,5-cz-[Ln(Lig)], Sm^III” value [2, 5] was 16%, the “conversion to 1,5-cz-[Ln(Lig)], Sm^III” value [2, 6] was 0% and the “conversion to 1,5-cz-[Ln(Lig)], Tb^III” value [2, 5] was 37%. The “conversion to 1,5-cz-[Ln(Lig)], Tb^III” value [2, 6] was 0%, the “conversion to 1,5-cz-[Ln(Lig)], Tm^III” value [2, 5] was 93% and the “conversion to 1,5-cz-[Ln(Lig)], Tm^III” value [2, 6] was 1%. The “conversion to 1,5-cz-[Ln(Lig)], Yb^III” value [2, 5] was 95% and the “conversion to 1,5-cz-[Ln(Lig)], Yb^III” value [2, 6] was 2%.
